Results taken from paper PMC6149679 (2017).

How the values were obtained:
[1] = tested on: poly A–poly U (RNA, polymer) A/U; assay: fluorescence titration (λexc 355 nm); settings: Na+ (sodium cacodylate, I = 0.05 M); pH 7.0; no emission change
[2] = tested on: poly A–poly U (RNA, polymer) A/U; assay: thermal denaturation, absorbance at 260 nm; settings: Na+ (sodium cacodylate, I = 0.05 M); pH 7.0; no stabilisation (error ± 0.5 °C); same at pH 5
poly A (RNA, polymer) A = assay: fluorescence titration (λexc 355 nm), Scatchard; settings: Na+ (sodium cacodylate, I = 0.05 M); pH 7.0; n fixed at 0.2; polynucleotide as phosphates; per base
[3] = tested on: poly A–poly U (RNA, polymer) A/U; assay: fluorescence titration (λexc 355 nm), Scatchard; settings: Na+ (sodium cacodylate, I = 0.05 M); pH 5.0; n fixed at 0.2; polynucleotide as phosphates; per base
[4] = tested on: poly AH+-poly AH+ (poly A at pH 5) (RNA, polymer, adenine protonated at pH 5) A; assay: fluorescence titration (λexc 355 nm); settings: Na+ (sodium cacodylate, I = 0.05 M), emission of 2 did not change

| binding [1] | binding [2] | log Ks (poly A (RNA, polymer) A) | log Ks [3] | binding [4] | Compound |
| --- | --- | --- | --- | --- | --- |
| no | no | – | – | – | COC(=O)C(Cc1cc2cn(CCN3C(=O)c4ccccc4C3=O)c(=O)nc2[nH]1)NC(=O)CNC(=O)[C@H](N)CCCCNC(=O)c1ccc(C(=O)NC(=N)N)[nH]1 (stereo partly shown) |
| no | no | 4.1 | 3.5 | no | COC(=O)C(Cc1cc2cn(CCN3C(=O)c4ccccc4C3=O)c(=O)nc2[nH]1)NC(=O)CNC(=O)[C@@H](CCCCN)NC(=O)c1ccc(C(=O)NC(=N)N)[nH]1 (stereo partly shown) |
